{
  "source": "paper PMC4176448",
  "about": "(The Journal of Infectious Diseases, 2014)",
  "tested_on": "influenza B virus",
  "set-up": "species or system human (patient)",
  "conditions": "human, in vivo, po",
  "data": [
    {"molecule": "CCOC(=O)C1=C[C@@H](OC(CC)CC)[C@H](NC(C)=O)[C@@H](N)C1", "note": "[Oseltamivir, oseltamivir]", "values": [
      {"measurement": "NPAs tested for influenza B virus after oseltamivir treatment", "value": "still positive"}
    ]}
  ]
}
